Source: patent US12465607B2, “ALK inhibitors for treatment of ALK-negative cancer and plasma cell-mediated diseases” (UNIVERSITETET I OSLO, priority 2019, dated 2025)

Key:
Experiment in all cases: Myeloma cell line viability, CCK-8, 24 hr
AMO-1 = type: cell-based; conditions: Homo sapiens, AMO1; AMO-1, 24 hr treatment
Procedure: (§1) The Results are the means of 3 independent experiments. Note the concentration-dependent reduction of viability of myeloma cells.
(§2) The cell lines used were the human multiple myeloma cell lines L363 (DSMZ catalogue number ACC 49), AMO-1 (DSMZ catalogue number ACC 538) and ARH-77 (ATCC CRL-1621).
(§3) Multiple myeloma cell lines were maintained in RPMI-1640 culture medium (Sigma-Aldrich, Buchs, Switzerland) supplemented with 10% heat-inactivated fetal bovine serum (FBS), 100 μg/ml streptomycin and 100 U/ml penicillin/streptomycin (Sigma-Aldrich, Buchs, Switzerland). The bortezomib-resistant cell lines were established and maintained from their parental cell line by continuous drug exposure>12 months to their parental cell lines (Soriano et al, Leukemia 30: 2198-2207, 2016).
(§4) The viability of the cells was determined 24 hr post treatment using Cell Counting Kit-8 (CCK-8; MedChemExpress, NJ, USA) according to the manufacturer's instructions.

AMO-1-BTZ = type: cell-based; conditions: Homo sapiens, 24 hr treatment
Procedure: as §1, §2, §3, §4

ARH77 = type: cell-based, human; conditions: ARH77, 24 h
Procedure: In A, HeLa cells expressing inducible IgM (heavy and light chain) were treated with mifepristone to induce IgM expression over a period of 2 weeks. Afterwards, cells were treated with 1 μM crizotinib for 24 h followed by lysis and immunoblotting for caspase 3. […] Cleavage of caspase 3 is indicative of apoptosis induction. + and − indicate cells with or without mifepristone treatment, respectively. B, Concentration-response curves for the effect of crizotinib treatment (24 h) on the viability of three different myeloma cell lines. Results are the means of three independent experiments. C, Expression levels of LTK and ALK mRNA in the indicated myeloma cell lines determined by qPCR.
as §2
Multiple myeloma cell lines were maintained in RPMI-1640 culture medium (Sigma-Aldrich, Buchs, Switzerland) supplemented with 10% heat-inactivated fetal bovine serum (FBS), 100 μg/ml streptomycin and 100 U/ml penicillin/streptomycin (Sigma-Aldrich, Buchs, Switzerland). […]
as §4

IC50 (AMO-1): 3.92 µM | IC50 (AMO-1-BTZ): 6.48 µM
SMILES: C[C@@H](Oc1cc(-c2cnn(C3CCNCC3)c2)cnc1N)c1c(Cl)ccc(F)c1Cl [crizotinib, 3-[(1R)-1-(2,6-dichloro-3-fluorophenyl)ethoxy]-5-(1-piperidin-4-ylpyrazol-4-yl)pyridin-2-amine]
cell viability (ARH77): clear reductions in cell viability
